Test results reported in patent US7314726B2, “Beta secretase exosite binding peptides and methods for identifying beta secretase modulators” (Bristol-Myers Squibb Company, priority 2002, dated 2008).
Read-outs that look alike come from different tables or passages of the source.

Tests used:
[1] = target: T1, BACE (Homo sapiens, UniProt P56817); assay: Phage ELISA of phage-displayed peptides on immobilised BACE; format: binding; set-up: The cDNA for the catalytic domain of human BACE (residues 1-460) was PCR-amplified; human IgG1 heavy chain (C, cleaved yes); thrombin cleavage site (C); made in house; host or cells: CHO DG44 cells (stably transfected, secreted); settings: clones from solid phase panning at pH 7.0
Description: Two highly selected and homologous 12 mer phage peptides bound BACE specifically and reproducibly in phage-ELISA tests. Bristol-Myers Squibb fUSE5-based C4C, C6C, 5- and 15 mer libraries, and M13-based C7C libraries, and 7- and 12 mer libraries obtained from New England Biolabs, Beverly, Mass. were panned for three cycles against BACE (produced as described herein in Example 3). BACE was immobilized by coating at 0.5 μg/well in 4 wells of Dynex Immulon 4HBX plates overnight at 4° C. in 0.1M NaHCO3 buffer, pH 9.0. Panning was by standard procedures at room temperature that involved blocking wells with 2% BSA in PBS and elution with 0.1M HCL, pH 2.2. The vector NTI alignment tool and visual inspection of sequences were employed to analyze the selected peptides.
After sequencing approximately 20-50 clones from each library after three cycles of selection, we prepared essentially all possible candidate clones (39 clones in total) for phage-ELISA to obtain direct evidence for affinity to BACE. […] We therefore sequenced additional 12 mer clones to try to find additional candidate clones. […] This […] (SEQ ID NO:20) peptide is homologous to […] (SEQ ID NO:19) and consistent with the specific binding of both those peptides to BACE. The […] (SEQ ID NO:20) peptide and […] (SEQ ID NO:19) peptides were the two most efficiently recovered clones with 13 and 9 copies, respectively. […]

[2] = target: T1, BACE; assay: Competitive binding assay, displacement of labeled EBP from BACE, fluorescence anisotropy; set-up: The cDNA for the catalytic domain of human BACE (residues 1-460) was PCR-amplified; human IgG1 heavy chain (C, cleaved yes); thrombin cleavage site (C); made in house; host or cells: CHO DG44 cells (stably transfected, secreted); settings: displacement of Molecule X, read-out: binding constant (Kd) of unlabeled peptide by competition
Description: The competitive binding assay was carried out at pH 7.1 (PBS buffer) or pH 4.5 (50 mM acetate buffer). The fluorescence anisotropy was measured at 25° C. in an AVIV fluorometer. The excitation and emission wavelengths were set to 495 and 519 nm, respectively. The excitation and emission slit widths were 4 and 10 nm, respectively.
The initial anisotropy value was measured. A concentrated unlabeled peptide or compound stock was titrated into the above solution of EBP and BACE. The final concentration of unlabeled peptide or compound ranges from 20 to 20000 nM. After each addition, the solution was mixed for 10 times with a pipettor. The fluorescence anisotropy was averaged over a 5 minute period.
The change in anisotropy was converted to fractional occupancy based on the r0 and rb obtained from the binding assay. The fractional occupancy was then plotted against the concentration of the competing peptide or compound. (see, for example, FIG. 6) The Kd of the competing ligand was calculated from curve fitting using the program […]™ (Synergy Software, Reading, Pa.). The equation used to fit the competition data is identical to equation 4 in Lai et al., (2000) Arch. Biochem. Biophys. 381:278-284.
The truncated unlabeled peptides were screened at a single concentration of 10 μM at pH 4.5. The anisotropy values detected with Molecule X in the absence of inhibitor, i.e., truncated unlabeled peptide (ra) and in the presence of the inhibitor (rb) and the labeled peptide alone (r0) were used to calculate the percent of inhibition: 100 (ra-rb)/(ra-r0). The percent of inhibition was compared among the truncated peptides.

T1 sequence (P56817 46-460 limits assumed): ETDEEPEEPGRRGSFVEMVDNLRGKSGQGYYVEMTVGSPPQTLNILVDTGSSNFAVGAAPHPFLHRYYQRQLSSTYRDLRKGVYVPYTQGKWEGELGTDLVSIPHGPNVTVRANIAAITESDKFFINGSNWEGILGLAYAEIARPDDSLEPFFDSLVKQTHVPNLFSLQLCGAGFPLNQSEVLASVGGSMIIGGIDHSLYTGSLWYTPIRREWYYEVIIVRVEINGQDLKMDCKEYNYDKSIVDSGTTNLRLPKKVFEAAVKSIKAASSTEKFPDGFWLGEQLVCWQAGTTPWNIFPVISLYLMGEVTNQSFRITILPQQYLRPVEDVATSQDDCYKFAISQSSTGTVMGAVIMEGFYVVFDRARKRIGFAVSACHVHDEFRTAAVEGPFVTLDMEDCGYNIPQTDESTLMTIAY

phage ELISA binding to BACE [1]: specifically bind to BACE
Kd ([2]; pH 4.5): 1070 nM
Kd ([2]; pH 7.1): 84 nM
Substance: Ac-NLTTYPYFIPLP-OH [BMS-561871]
